The source of these data is patent US8835429B2, “Pyrimidine compounds, their use as mTOR kinase and Pl3 kinase inhibitors, and their syntheses” (Wyeth LLC, priority 2009, dated 2014).

One assay relates to LNCap. Briefly: In vitro cell growth assay (MTS), LNCap. The assay is classed as cell-based. The conditions noted are these: LNCaP, 72 h, human prostate line, three days after drug treatment.
In another assay the test system is MDA468. Briefly: In vitro cell growth assay (MTS), MDA468. The conditions noted are these: 72 h, human breast line MDA468, three days after drug treatment, read-out: MDA IC50. The assay is classed as cell-based.
The next assay addresses PI3K-gamma (Homo sapiens, UniProt P48736). Nature of the assay: PI3K-gamma fluorescence polarization assay. The conditions noted are these: 20 μM PIP2, 25 μM ATP; read-out: PI3Kγ IC50. The assay is classed as biochemical. In a few lines:
(§1)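 PIP2 (diC8) and ATP substrate with PI3K in 20 mM HEPES pH 7.5, 2 mM MgCl2, 0.05% CHAPS, 0.01% βME; 1% DMSO final; 30–60 min reaction. Stopped with EDTA plus GST-GRP (70 nM) and TAMRA probe (10 nM); FP (mP) read after 30–90 min, with no-enzyme controls.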

For the next assay, the target named is PI3K-alpha (Homo sapiens, UniProt P42336). Nature of the assay: PI3K-alpha fluorescence polarization assay. The note with it: 20 μM PIP2, 25 μM ATP; read-out: PI3Kα IC50. The assay is classed as biochemical. In outline:
as §1

A further assay addresses mTOR (Homo sapiens, UniProt P42345). Nature of the assay: mTOR enzyme assay (DELFIA, purified FLAG-TOR, His6-S6K substrate). The assay is classed as biochemical. Also noted: FLAG. The note with it: 100 μM ATP, 2 hours.

PI3K-gamma, sequence (P48736 whole entry, species assumed): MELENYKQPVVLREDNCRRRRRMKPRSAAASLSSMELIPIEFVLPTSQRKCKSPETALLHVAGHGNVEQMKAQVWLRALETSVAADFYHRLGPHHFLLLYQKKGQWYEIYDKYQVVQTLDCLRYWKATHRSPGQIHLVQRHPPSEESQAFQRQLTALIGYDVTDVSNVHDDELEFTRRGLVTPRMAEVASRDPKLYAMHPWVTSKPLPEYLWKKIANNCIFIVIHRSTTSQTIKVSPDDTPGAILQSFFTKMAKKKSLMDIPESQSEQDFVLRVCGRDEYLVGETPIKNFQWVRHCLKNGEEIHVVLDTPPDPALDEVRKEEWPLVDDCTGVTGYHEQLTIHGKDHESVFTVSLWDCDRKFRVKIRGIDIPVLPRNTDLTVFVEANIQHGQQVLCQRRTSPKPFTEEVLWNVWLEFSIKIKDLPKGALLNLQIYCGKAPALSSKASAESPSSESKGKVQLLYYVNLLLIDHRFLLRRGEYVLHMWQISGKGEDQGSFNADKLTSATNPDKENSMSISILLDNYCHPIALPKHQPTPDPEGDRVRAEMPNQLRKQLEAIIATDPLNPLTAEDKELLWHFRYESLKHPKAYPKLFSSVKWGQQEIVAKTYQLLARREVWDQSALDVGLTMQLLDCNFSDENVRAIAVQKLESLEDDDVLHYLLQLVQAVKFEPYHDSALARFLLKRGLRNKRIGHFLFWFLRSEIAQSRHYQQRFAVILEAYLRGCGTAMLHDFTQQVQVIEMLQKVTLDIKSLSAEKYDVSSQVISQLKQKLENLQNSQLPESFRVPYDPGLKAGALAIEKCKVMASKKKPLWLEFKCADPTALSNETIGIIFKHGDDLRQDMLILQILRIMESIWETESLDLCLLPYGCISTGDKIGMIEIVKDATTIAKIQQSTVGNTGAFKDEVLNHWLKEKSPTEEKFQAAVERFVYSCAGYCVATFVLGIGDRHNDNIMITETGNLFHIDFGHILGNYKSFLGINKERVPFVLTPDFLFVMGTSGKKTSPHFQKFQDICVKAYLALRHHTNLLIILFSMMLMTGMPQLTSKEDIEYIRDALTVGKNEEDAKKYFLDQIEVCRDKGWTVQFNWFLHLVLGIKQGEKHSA
mTOR, sequence (P42345 1360-2549 limits assumed): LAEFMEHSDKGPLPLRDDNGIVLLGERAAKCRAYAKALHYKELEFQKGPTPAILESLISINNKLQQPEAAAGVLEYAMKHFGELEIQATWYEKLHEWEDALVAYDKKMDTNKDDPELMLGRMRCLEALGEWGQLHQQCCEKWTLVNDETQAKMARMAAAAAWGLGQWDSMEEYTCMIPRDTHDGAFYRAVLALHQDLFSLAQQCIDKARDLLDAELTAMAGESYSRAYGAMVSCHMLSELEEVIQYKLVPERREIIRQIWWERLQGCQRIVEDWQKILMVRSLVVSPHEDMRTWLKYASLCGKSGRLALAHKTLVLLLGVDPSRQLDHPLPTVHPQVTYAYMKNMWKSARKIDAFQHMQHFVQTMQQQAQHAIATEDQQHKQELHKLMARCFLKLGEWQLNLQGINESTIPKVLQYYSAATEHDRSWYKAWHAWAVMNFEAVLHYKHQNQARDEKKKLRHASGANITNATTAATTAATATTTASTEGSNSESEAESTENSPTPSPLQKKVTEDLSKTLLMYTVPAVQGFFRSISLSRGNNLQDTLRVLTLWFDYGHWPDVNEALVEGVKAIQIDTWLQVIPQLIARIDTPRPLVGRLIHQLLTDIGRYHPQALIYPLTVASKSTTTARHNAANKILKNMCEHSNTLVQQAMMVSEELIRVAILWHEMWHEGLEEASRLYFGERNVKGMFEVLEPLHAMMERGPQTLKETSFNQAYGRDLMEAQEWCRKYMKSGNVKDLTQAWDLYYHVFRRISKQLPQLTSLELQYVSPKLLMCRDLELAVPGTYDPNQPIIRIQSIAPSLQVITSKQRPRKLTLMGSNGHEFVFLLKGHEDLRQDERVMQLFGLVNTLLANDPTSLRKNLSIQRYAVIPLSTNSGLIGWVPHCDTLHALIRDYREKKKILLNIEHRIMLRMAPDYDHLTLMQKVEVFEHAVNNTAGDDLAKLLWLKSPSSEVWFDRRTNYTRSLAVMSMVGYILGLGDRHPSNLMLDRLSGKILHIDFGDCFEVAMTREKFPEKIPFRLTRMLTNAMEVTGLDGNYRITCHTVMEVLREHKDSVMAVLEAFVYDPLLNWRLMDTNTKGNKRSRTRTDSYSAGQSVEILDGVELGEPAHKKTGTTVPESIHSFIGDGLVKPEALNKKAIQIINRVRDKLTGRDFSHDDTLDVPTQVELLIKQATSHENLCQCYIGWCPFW
PI3K-alpha, sequence (P42336 whole entry, species assumed): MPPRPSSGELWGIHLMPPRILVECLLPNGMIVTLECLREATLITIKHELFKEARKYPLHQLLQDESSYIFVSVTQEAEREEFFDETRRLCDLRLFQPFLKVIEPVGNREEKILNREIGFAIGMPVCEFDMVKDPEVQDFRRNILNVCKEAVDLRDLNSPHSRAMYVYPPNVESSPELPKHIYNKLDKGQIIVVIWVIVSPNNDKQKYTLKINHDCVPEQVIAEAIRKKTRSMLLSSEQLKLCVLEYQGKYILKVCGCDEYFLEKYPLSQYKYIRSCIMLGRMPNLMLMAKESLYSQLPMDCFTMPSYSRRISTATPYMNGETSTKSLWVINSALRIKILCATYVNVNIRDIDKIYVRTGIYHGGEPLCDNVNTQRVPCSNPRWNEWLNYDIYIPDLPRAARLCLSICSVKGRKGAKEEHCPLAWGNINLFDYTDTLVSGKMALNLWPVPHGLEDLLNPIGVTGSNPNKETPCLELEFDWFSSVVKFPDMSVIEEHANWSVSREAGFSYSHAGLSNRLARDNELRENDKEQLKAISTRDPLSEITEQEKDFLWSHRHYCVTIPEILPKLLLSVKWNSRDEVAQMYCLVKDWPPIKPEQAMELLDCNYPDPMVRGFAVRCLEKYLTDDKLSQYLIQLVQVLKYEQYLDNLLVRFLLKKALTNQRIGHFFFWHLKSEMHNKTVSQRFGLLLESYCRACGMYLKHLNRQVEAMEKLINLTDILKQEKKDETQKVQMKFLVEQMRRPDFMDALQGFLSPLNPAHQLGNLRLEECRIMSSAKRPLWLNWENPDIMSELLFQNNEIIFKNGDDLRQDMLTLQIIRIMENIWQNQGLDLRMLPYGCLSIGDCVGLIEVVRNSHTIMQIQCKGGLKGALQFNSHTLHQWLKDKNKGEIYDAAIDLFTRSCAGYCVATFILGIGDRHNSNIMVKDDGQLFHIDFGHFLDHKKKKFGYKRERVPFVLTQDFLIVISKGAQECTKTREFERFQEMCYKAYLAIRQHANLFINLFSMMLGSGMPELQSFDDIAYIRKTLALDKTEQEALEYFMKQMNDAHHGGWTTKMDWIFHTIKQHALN
PI3K-alpha, sequence (P27986 whole entry partner, species assumed): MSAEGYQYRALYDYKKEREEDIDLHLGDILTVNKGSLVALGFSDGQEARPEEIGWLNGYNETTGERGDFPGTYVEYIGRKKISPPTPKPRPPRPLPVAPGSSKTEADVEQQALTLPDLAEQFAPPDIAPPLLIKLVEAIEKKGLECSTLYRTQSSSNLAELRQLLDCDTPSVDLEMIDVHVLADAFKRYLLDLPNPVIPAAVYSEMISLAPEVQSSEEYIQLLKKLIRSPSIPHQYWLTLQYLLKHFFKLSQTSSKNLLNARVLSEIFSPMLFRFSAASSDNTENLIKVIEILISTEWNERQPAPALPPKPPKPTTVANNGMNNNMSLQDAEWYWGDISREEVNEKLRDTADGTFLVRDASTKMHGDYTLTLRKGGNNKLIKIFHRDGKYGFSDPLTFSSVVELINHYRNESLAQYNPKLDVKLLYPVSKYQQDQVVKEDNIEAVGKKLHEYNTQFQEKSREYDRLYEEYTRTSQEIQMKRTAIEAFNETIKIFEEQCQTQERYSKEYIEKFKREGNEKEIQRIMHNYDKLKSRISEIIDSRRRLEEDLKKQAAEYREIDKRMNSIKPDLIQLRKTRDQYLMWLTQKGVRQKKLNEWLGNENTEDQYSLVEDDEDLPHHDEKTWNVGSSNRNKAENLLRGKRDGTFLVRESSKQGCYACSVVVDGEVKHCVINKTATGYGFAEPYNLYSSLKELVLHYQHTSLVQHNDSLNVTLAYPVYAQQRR

Take `CC(C)Nc1cc(N2C3COCC2COC3)nc(-c2ccc(NC(=O)Nc3ccc(CN4CCN(C)CC4)cc3)cc2)n1` [1-{4-[4-(3,7-dioxa-9-azabicyclo[3.3.1]non-9-yl)-6-(isopropylamino)pyrimidin-2-yl]phenyl}-3-{4-[(4-methylpiperazin-1-yl)methyl]phenyl}urea]: the half-inhibitory concentration (IC50) in the assay with LNCap is 600 nM; in the assay with MDA468 it was 1000 nM; on PI3K-gamma, 6870 nM; at PI3K-alpha, 3160 nM; on mTOR, 17.5 nM.
Take `CN1CCN(c2ccc(NC(=O)Nc3ccc(-c4nc(C5CCOCC5)cc(N5C6CCC5COC6)n4)cc3)cn2)CC1` [1-[6-(4-methylpiperazin-1-yl)pyridin-3-yl]-3-{4-[4-(3-oxa-8-azabicyclo[3.2.1]oct-8-yl)-6-(tetrahydro-2H-pyran-4-yl)pyrimidin-2-yl]phenyl}urea]: the IC50 in the assay on LNCap is ≤ 0.8 nM; with MDA468 it was 4 nM; at PI3K-gamma, ≥ 10000 nM; at PI3K-alpha, 2590 nM; on mTOR it was 1.22 nM.
As for `CS(=O)(=O)CCNc1cc(N2C3CCC2COC3)nc(-c2ccc(NC(=O)Nc3ccncc3)cc2)n1` [1-{4-[4-{[2-(methylsulfonyl)ethyl]amino}-6-(3-oxa-8-azabicyclo[3.2.1]oct-8-yl)pyrimidin-2-yl]phenyl}-3-pyridin-4-ylurea], the IC50 in the assay with LNCap was 1000 nM; in the assay with MDA468, 400 nM; at PI3K-gamma, 10800 nM; at PI3K-alpha, 1300 nM; against mTOR, 4.05 nM.
For the compound `O=C(Nc1ccc(-c2nc(N3C4CCC3COC4)cc(N3C4CCC3COC4)n2)cc1)Nc1cccnc1` [1-[4-(4,6-di-3-oxa-8-azabicyclo[3.2.1]oct-8-ylpyrimidin-2-yl)phenyl]-3-pyridin-3-ylurea], the IC50 in the assay on LNCap is 0.8 nM; with MDA468, 5 nM; at PI3K-gamma, 4490 nM; on PI3K-alpha, 1130 nM; against mTOR it was 0.58 nM.
On to `CN1CCN(c2ccc(NC(=O)Nc3ccc(-c4nc(C5CCOCC5)cc(N5C6CCC5COC6)n4)cc3)cc2)CC1` [1-[4-(4-methylpiperazin-1-yl)phenyl]-3-{4-[4-(3-oxa-8-azabicyclo[3.2.1]oct-8-yl)-6-(tetrahydro-2H-pyran-4-yl)pyrimidin-2-yl]phenyl}urea], for which the IC50 is ≤ 0.8 nM in the assay on LNCap; 4 nM in the assay on MDA468; 4730 nM on PI3K-gamma; 1060 nM at PI3K-alpha; 0.855 nM against mTOR.
Regarding `C[C@@H]1CN(c2cc(N3C4CCC3COC4)nc(-c3ccc(NC(=O)Nc4ccc(C(=O)N5CCN(C)CC5)cc4)cc3)n2)C[C@H](C)O1` [1-(4-{4-[(2R,6S)-2,6-dimethylmorpholin-4-yl]-6-(3-oxa-8-azabicyclo[3.2.1]oct-8-yl)pyrimidin-2-yl}phenyl)-3-{4-[(4-methylpiperazin-1-yl)carbonyl]phenyl}urea], the IC50 with LNCap was ≤ 0.8 nM; in the assay on MDA468 it was 0.8 nM; at PI3K-gamma it was 1030 nM; on PI3K-alpha it was 180 nM; at mTOR, 3.55 nM.
Consider `CC(C)N1CCN(C(=O)c2ccc(NC(=O)Nc3ccc(-c4nc(C5CCOCC5)cc(N5C6CCC5COC6)n4)cc3)cc2)CC1` [1-(4-{[4-(1-methylethyl)piperazin-1-yl]carbonyl}phenyl)-3-{4-[4-(3-oxa-8-azabicyclo[3.2.1]oct-8-yl)-6-(tetrahydro-2H-pyran-4-yl)pyrimidin-2-yl]phenyl}urea], for which the IC50 is ≤ 0.8 nM with LNCap; 0.8 nM with MDA468; 3210 nM at PI3K-gamma; 353 nM at PI3K-alpha; 0.295 nM against mTOR.
With `C[C@@H]1COCCN1c1cc(N2C3CCC2COC3)nc(-c2ccc(NC(=O)Nc3ccc(N4CCN(C)CC4)cc3)cc2)n1` [1-(4-{4-[(3R)-3-methylmorpholin-4-yl]-6-(3-oxa-8-azabicyclo[3.2.1]oct-8-yl)pyrimidin-2-yl}phenyl)-3-[4-(4-methylpiperazin-1-yl)phenyl]urea], the concentration for half-maximal inhibition (IC50) in the assay on LNCap is ≤ 0.8 nM; with MDA468 it was 1 nM; on PI3K-gamma, 3500 nM; at PI3K-alpha, 864 nM; against mTOR, 1.25 nM.
With `CC(C)Nc1cc(N2C3CCC2COC3)nc(-c2ccc(NC(=O)Nc3ccc(OCCN4CCCC4)cc3)cc2)n1` [1-(4-{4-[(1-methylethyl)amino]-6-(3-oxa-8-azabicyclo[3.2.1]oct-8-yl)pyrimidin-2-yl}phenyl)-3-[4-(2-pyrrolidin-1-ylethoxy)phenyl]urea], the IC50 amounted to 50 nM in the assay with LNCap; 55 nM in the assay on MDA468; 4730 nM on PI3K-gamma; 1320 nM at PI3K-alpha; 3.05 nM against mTOR.
With `C[C@@H]1CN(c2cc(N3C4CCC3COC4)nc(-c3ccc(NC(=O)Nc4ccc(N5CCN(C)CC5)nc4)cc3)n2)C[C@H](C)O1` [1-(4-{4-[(2R,6S)-2,6-dimethylmorpholin-4-yl]-6-(3-oxa-8-azabicyclo[3.2.1]oct-8-yl)pyrimidin-2-yl}phenyl)-3-[6-(4-methylpiperazin-1-yl)pyridin-3-yl]urea], the IC50 in the assay on LNCap was 100 nM; with MDA468, 200 nM; at PI3K-gamma, 15300 nM; at PI3K-alpha it was 1690 nM; at mTOR, 15.2 nM.
As to `CC(C)Nc1cc(N2C3CCC2COC3)nc(-c2ccc(NC(=O)Nc3ccc(CN(C)C)cc3)cc2)n1` [1-{4-[(dimethylamino)methyl]phenyl}-3-(4-{4-[(1-methylethyl)amino]-6-(3-oxa-8-azabicyclo[3.2.1]oct-8-yl)pyrimidin-2-yl}phenyl)urea], the IC50 in the assay on LNCap was determined as 120 nM; with MDA468, 120 nM; at PI3K-gamma it was 3880 nM; on PI3K-alpha, 1190 nM; at mTOR it was 2.65 nM.
For the compound `C[C@@H]1COCCN1c1cc(N2C3CCC2COC3)nc(-c2ccc(NC(=O)Nc3cccnc3)cc2)n1` [1-(4-{4-[(3R)-3-methylmorpholin-4-yl]-6-(3-oxa-8-azabicyclo[3.2.1]oct-8-yl)pyrimidin-2-yl}phenyl)-3-pyridin-3-ylurea], the IC50 with LNCap amounted to 20 nM; with MDA468, 80 nM; at PI3K-gamma, 7470 nM; on PI3K-alpha, 1060 nM; against mTOR it was 0.77 nM.
As to `CC(C)N1CCN(C(=O)c2ccc(NC(=O)Nc3ccc(-c4nc(N5C[C@@H](C)O[C@@H](C)C5)cc(N5C6CCC5COC6)n4)cc3)cc2)CC1` [1-(4-{4-[(2R,6S)-2,6-dimethylmorpholin-4-yl]-6-(3-oxa-8-azabicyclo[3.2.1]oct-8-yl)pyrimidin-2-yl}phenyl)-3-(4-{[4-(1-methylethyl)piperazin-1-yl]carbonyl}phenyl)urea], the IC50 in the assay on LNCap is ≤ 0.8 nM; with MDA468, 0.8 nM; on PI3K-gamma, 915 nM; on PI3K-alpha, 293 nM; at mTOR, 2.7 nM.
In the same order, the values of `C[C@@H]1COCCN1c1cc(N2C3CCC2COC3)nc(-c2ccc(NC(=O)Nc3ccc(N4CCN(C)CC4)nc3)cc2)n1` [1-(4-{4-[(3R)-3-methylmorpholin-4-yl]-6-(3-oxa-8-azabicyclo[3.2.1]oct-8-yl)pyrimidin-2-yl}phenyl)-3-[6-(4-methylpiperazin-1-yl)pyridin-3-yl]urea] are 3.5 nM, 8 nM, 2980 nM, 1100 nM and 2.5 nM.
For `CN(C)CCOc1ccc(NC(=O)Nc2ccc(-c3nc(C4CCOCC4)cc(N4C5CCC4COC5)n3)cc2)cc1` [1-{4-[2-(dimethylamino)ethoxy]phenyl}-3-{4-[4-(3-oxa-8-azabicyclo[3.2.1]oct-8-yl)-6-(tetrahydro-2H-pyran-4-yl)pyrimidin-2-yl]phenyl}urea], the IC50 with LNCap is 4 nM; in the assay with MDA468 it was 11 nM; at PI3K-gamma, 7300 nM; at PI3K-alpha it was 1460 nM; at mTOR, 1.15 nM.
With `CN(C)CCOc1ccc(NC(=O)Nc2ccc(-c3nc(N4C5CCC4COC5)cc(N4C[C@H]5C[C@@H]4CO5)n3)cc2)cc1` [1-{4-[2-(dimethylamino)ethoxy]phenyl}-3-(4-{4-[(1R,4R)-2-oxa-5-azabicyclo[2.2.1]hept-5-yl]-6-(3-oxa-8-azabicyclo[3.2.1]oct-8-yl)pyrimidin-2-yl}phenyl)urea], the IC50 was 120 nM in the assay on LNCap; 130 nM in the assay on MDA468; 9470 nM at PI3K-gamma; 2740 nM on PI3K-alpha; 12 nM at mTOR.
As for `C[C@@H]1COCCN1c1cc(N2C3CCC2COC3)nc(-c2ccc(NC(=O)Nc3ccc(C(=O)N(C)C)cc3)cc2)n1` [N,N-dimethyl-4-{[(4-{4-[(3R)-3-methylmorpholin-4-yl]-6-(3-oxa-8-azabicyclo[3.2.1]oct-8-yl)pyrimidin-2-yl}phenyl)carbamoyl]amino}benzamide], the IC50 in the assay on LNCap was ≤ 0.8 nM; in the assay on MDA468, 0.8 nM; on PI3K-gamma, 1640 nM; at PI3K-alpha, 108 nM; against mTOR, 0.44 nM.
Regarding `CCNC(=O)Nc1ccc(-c2nc(CN(C)C)cc(N3C4CCC3COC4)n2)cc1` [1-(4-{4-[(dimethylamino)methyl]-6-(3-oxa-8-azabicyclo[3.2.1]oct-8-yl)pyrimidin-2-yl}phenyl)-3-ethylurea], the 50% inhibitory concentration (IC50) came to 1100 nM in the assay with LNCap; 3000 nM with MDA468; 12600 nM at PI3K-gamma; 6240 nM on PI3K-alpha; 40 nM against mTOR.
